{"source": "patent US20230017785A1", "about": "“COMPANION DIAGNOSTICS FOR COMPLEMENT INHIBITORS” (THE JOHNS HOPKINS UNIVERSITY, priority 2019, published 2023)", "key": {"PIGA null TF-1 cells [1]": {"system": "PIGA null TF-1 cells", "assay": "Modified Ham (mHam) assay, complement-dependent cell killing", "assay_type": "cell-based, human", "details": "anti-C5 mAb 10 μg, ACH-4471 0.33 μM; for Inhibition of cell killing in the mHam induced by APS sera: APS patient sera; for Inhibition of mHam cell killing induced by CAPS sera: CAPS patient sera"}, "[2]": {"system": "C5b-9 deposition on PIGA null TF-1 cells", "assay": "Flow cytometry for C5b-9 deposition", "assay_type": "cell-based, human", "details": "for Inhibition of C5b-9 deposition induced by APS patient sera: APS patient sera on PIGA null TF-1 cells; for Inhibition of C5b-9 deposition induced by CAPS sera: CAPS patient sera (e.g. CAPS5); for Inhibition of C5b-9 deposition induced by patient-derived IgG anti-β2GPI antibody: anti-β2GPI from thrombotic APS patient APS21 added to normal human serum", "procedure": "Patient derived anti-β2GPI antibodies. Anti-β2GPI antibodies from two patients were affinity purified using a column of Affigel HZ to which purified human β2GPI was coupled (Bio-Rad Laboratories, Hercules, Calif.), as previously described.^43 IgG purity was assessed by reduced SDS-PAGE. Complement activation (C5b-9 deposition and complement dependent cell killing in mHam) induced by patient-derived anti-β2GPI antibodies was tested by adding patient-derived anti-β2GPI antibodies to normal human serum (Cat. NHS, Complement Technology, Inc.).\nFlow cytometry for C5b-9 deposition. Flow cytometry was performed to evaluate cell surface deposition of C5b-9 deposition on PIGA null TF1 cells. Cells were seeded in V-bottom 96-well plates (1.2×10^5 cells/well) either in GVB^0.MgEGTA (pH 6.4) buffer for alternative pathway activation or GVB++ (pH 7.4) buffer for classical pathway activation followed by addition of APS patient serum (or patient-derived aPL added to normal human serum). The reaction was incubated for 15 min at 37° C., and stopped by adding FACS buffer/EDTA. Cell pellets were separated by centrifugation at 1900 rpm for 3 minutes at room temperature and then stained with Alexa 488 conjugated anti-C3c antibody (Cat. 4212, Abcam, dilution at 1:100) and […] monoclonal primary antibody (Cat. 66768, Abcam, dilution at 1:100), followed by Alexa 647 conjugated secondary antibody. C5b-9 deposition was measured by a BD FACSCalibur. Ten thousand events were recorded per sample and analyzed using FlowJo software version 10.5.3 (FlowJo Inc). Normal human serum was used as a negative control for flow cytometry assays. We also evaluated the effect of adding anti-C5 mAb and ACH-4471 on C5b-9 deposition."}, "PIGA null TF-1 cells [3]": {"system": "PIGA null TF-1 cells", "details": "previously demonstrated (ref. 46); cited from earlier work"}}, "note": "“Also recorded” adds a separate entry of the source.", "data": [{"compound": "CC(=O)c1nn(CC(=O)N2C[C@H](F)C[C@H]2C(=O)Nc2cccc(Br)n2)c2ccc(-c3cnc(C)nc3)cc12", "note": "[ACH-4471]", "values": [{"measurement": "Inhibition of cell killing in the mHam induced by APS sera", "setting": "PIGA null TF-1 cells [1]", "value": "less so"}, {"measurement": "Inhibition of cell killing in the mHam induced by APS sera", "setting": "PIGA null TF-1 cells [1]; listed as ACH4471", "value": "did not prevent cell killing"}, {"measurement": "Inhibition of mHam cell killing induced by CAPS sera", "setting": "PIGA null TF-1 cells [1]", "value": "partially blocked; also recorded: partially inhibited"}, {"measurement": "Inhibition of mHam cell killing induced by CAPS sera", "setting": "PIGA null TF-1 cells [1]; listed as factor D inhibitor", "value": "attenuated"}, {"measurement": "Inhibition of C5b-9 deposition induced by APS patient sera", "setting": "[2]", "value": "less so"}, {"measurement": "Inhibition of C5b-9 deposition induced by APS patient sera", "setting": "[2]; listed as ACH4471", "value": "did not appreciably inhibit; also recorded: did not prevent"}, {"measurement": "Inhibition of C5b-9 deposition induced by CAPS sera", "setting": "[2]", "value": "partially blocked; also recorded: partially inhibited"}, {"measurement": "Inhibition of C5b-9 deposition induced by CAPS sera", "setting": "[2]; listed as ACH4471", "value": "partially"}, {"measurement": "Inhibition of C5b-9 deposition induced by aHUS patient sera", "setting": "[2]; aHUS patient PS-18 sera", "value": "completely inhibited"}, {"measurement": "Inhibition of C5b-9 deposition induced by patient-derived IgG anti-β2GPI antibody", "setting": "[2]", "value": "partially"}, {"measurement": "Inhibition of C5b-9 deposition induced by patient-derived IgG anti-β2GPI antibody", "setting": "[2]; listed as factor D inhibitor", "value": "minimally inhibited"}, {"measurement": "Blocking complement dependent killing in the mHam with aHUS serum", "setting": "PIGA null TF-1 cells [3]", "value": "highly effective in blocking"}]}]}
